Experimental data: patent US20240199882A1, “THIENYL-DIBENZOAZEPINES AND THEIR DERIVATIVES AS DONORS FOR XANTHENE-BASED SHORT-WAVE INFRARED (SWIR) DYES” (Mississippi State University, priority 2022, published 2024)

Key:
[1] = Absorbance of DSPE-PEG encapsulated and co-encapsulated dyes; type: physicochemical; details: co-encapsulated in DSPE-PEG (rNP-NO) versus separate
Excerpt: The SCR-NO and IR-1061 were encapsulated using DSPE-PEG (a common phospholipids-polymer conjugate) to give NP-SCR-NO and NP-IR-1061, respectively. […] However, when the components were co-encapsulated (rNP-NO, ratiometric NP for NO), there was observed a favorable ˜100 nm red-shift of the SCR-NO λabs into the SWIR region (FIG. 3A). The corresponding change for IR-1061 was minimal (1 nm).

[2] = Photophysical properties of the dyes in dichloromethane; type: physicochemical; details: for QY / Stokes Shift / ε / λabs / λem: in dichloromethane (DCM)
Excerpt: The quantum yield (QY) of the dyes decreased as the absorption wavelength increased, which is common to these dyes.

In the case of ClC1=C(/C=C/c2cc(-c3ccccc3)[s+]c(-c3ccccc3)c2)CCC/C1=C/C=C1C=C(c2ccccc2)SC(c2ccccc2)=C1.F[B-](F)(F)F [IR-1061], the “red-shift / change of λabs” value [1] is reported as 1 nm.
In the case of CCOC(=O)c1ccccc1C1=c2cc/c(=C3/C=CC(=[N+]4c5ccccc5C=Cc5ccccc54)S3)cc2Oc2cc(-c3ccc(N4c5ccccc5C=Cc5ccccc54)s3)ccc21 [SCR-1], the absorption maxima [2] is reported as 840, the “PA brightness value (EC×(1−QY))” value ([2]; calculated value) is reported as 82800 M⁻¹ cm⁻¹ and the QY [2] is reported as 0.31%. For the same molecule, the “Stokes Shift” value [2] was 110, the ε [2] was 1.20 (M^−1cm^−1) × 10^5 and the λabs [2] was 840 nm. For the same molecule, the λem [2] was 950 nm.
In the case of CCOC(=O)c1ccccc1C1=c2cc/c(=c3/cc4c(s3)=CC(=[N+]3c5ccccc5C=Cc5ccccc53)S4)cc2Oc2cc(-c3cc4sc(N5c6ccccc6C=Cc6ccccc65)cc4s3)ccc21 [SCR-2], the absorption maxima [2] is reported as 950, the QY [2] is reported as 0.036% and the “Stokes Shift” value [2] is reported as 150. For the same molecule, the ε [2] was 1.24 (M^−1cm^−1) × 10^5, the λabs [2] was 950 nm and the λem [2] was 1100 nm.
In the case of CCOC(=O)c1ccccc1C1=c2cc/c(=c3/cc/c(=C4\C=CC(=[N+]5c6ccccc6C=Cc6ccccc65)S4)s3)cc2Oc2cc(-c3ccc(-c4ccc(N5c6ccccc6C=Cc6ccccc65)s4)s3)ccc21 [SCR-3], the absorption maxima [2] is reported as 1040, the QY [2] is reported as 0.016% and the “Stokes Shift” value [2] is reported as 220. The ε [2] was 0.80 (M^−1cm^−1) × 10^5, the λabs [2] was 1040 nm and the λem [2] was 1260 nm.
